# From patent US6074845A (priority 1999, dated 2000)
# Ends that are not written are not given here.
# How the values were obtained:
# [1] = target: T1, BECRLR (bovine calcitonin receptor-like receptor) (Bos taurus, UniProt A6QP74); assay: Competition binding, displacement of [125I] rADM from BECRLR membranes; conditions: BE-CRLR membranes; for IC50: [125I] rADM
# T1 construct: amplify the open reading frame of the novel bovine CRLR cDNA; expressed in transfected cells; also transient transfection
# T1 sequence (A6QP74 23-462): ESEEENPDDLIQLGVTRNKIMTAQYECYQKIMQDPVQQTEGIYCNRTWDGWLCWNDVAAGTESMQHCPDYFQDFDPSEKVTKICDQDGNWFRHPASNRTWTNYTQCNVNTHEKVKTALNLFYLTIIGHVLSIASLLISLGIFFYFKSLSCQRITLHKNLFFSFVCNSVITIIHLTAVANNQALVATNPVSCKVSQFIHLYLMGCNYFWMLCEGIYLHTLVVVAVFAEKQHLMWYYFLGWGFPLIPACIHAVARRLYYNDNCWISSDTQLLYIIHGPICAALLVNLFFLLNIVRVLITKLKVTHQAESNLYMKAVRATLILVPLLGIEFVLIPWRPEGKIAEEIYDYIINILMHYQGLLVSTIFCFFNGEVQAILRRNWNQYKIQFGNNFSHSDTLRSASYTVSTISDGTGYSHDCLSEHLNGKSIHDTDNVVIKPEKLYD
# T1 sequence (O60895 43-175 partner): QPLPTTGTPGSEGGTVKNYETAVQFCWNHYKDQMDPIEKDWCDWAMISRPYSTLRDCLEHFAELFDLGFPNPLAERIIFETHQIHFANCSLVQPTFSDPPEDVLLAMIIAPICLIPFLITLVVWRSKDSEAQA
# Procedure: (§1) Cells from BECRLR-293 were scraped into ice-cold PBS and centrifuged for 10 min at 1000× g at 4° C. The pellet was resuspended in 10 mM Tris-HCl, pH 7.4, 10 mM Na-EDTA and homogenized using a Dounce ground glass homogenizer. The homogenate was centrifuged for 20 min at 12,000× g at 4° C. and the resultant membrane pellet was resuspended in 50 mM Tris-HCl, pH 7.4, 10 mM MgCl2 and recentrifuged. The final pellet was resuspended in 50 mM Tris-HCl, pH 7.4, 10 mM MgCl2 and assayed immediately.
# (§2) Saturation binding experiments were carried out using membranes prepared from BECRLR-293 cells pretreated in the absence or presence of ADM. The incubation mixture contained various concentrations of [^125 I] ADM (5 to 120 pM) and 40-60 μg of membrane protein in a final volume of 500 ul. Nonspecific binding was determined in the presence of 1 μM r ADM. After incubating for 30 min at 25° C., the reaction mixture was rapidly diluted with cold 0.9% NaCl and bound and free ligands were separated by filtration on glass fiber filters.
# (§3) [^125 I] […] The specificity of [^125 I] rADM binding to BE-CRLR membranes was investigated by analyzing the displacement of this radioligand binding by ADM and related peptides.
# [2] = tested on: insulin secretion and blood glucose metabolism; conditions: cited from earlier work
# [3] = tested on: CRLR co-expressed with RAMP2; conditions: cited from earlier work
# [4] = tested on: vector transfected HEK293 cell membranes; assay: Adenylyl cyclase activity in vector transfected HEK293 cell membranes (control); type: biochemical, human
# Procedure: (§4) Membrane-bound adenylyl cyclase activity was determined. Membranes [40-60 ug protein] were incubated in triplicate tubes in buffer containing 50 mM Tris-HCl, pH 7.4, 10 mM MgCl2, 1.2 mM ATP, 1.0 μCi [α^32P]ATP, 0.1 mM cAMP, 2.8 mM phosphoenolpyruvate and 5.2 μg/ml myokinase in a final volume of 100 μl for 20 min at 30° C. The reactions were stopped with 1 ml of a solution containing 0.28 mM cAMP, 0.33 mM ATP and 22,000 dpm of [^3 H]cAMP. [^32 P]cAMP was separated using sequential chromatography as the rate of conversion of [(α^32 P]ATP to [^32 P]cAMP on Dowex and alumina columns (33). Adenylyl cyclase activities were determined in the absence (basal) or presence of various concentrations of rat ADM or hαCGRP (1 pM to 1 μM). The effect of ADM (22-52), ADM (26-52) and hαCGRP(8-37), on ADM-mediatedactivation of adenylyl cyclase was also determined.
# HEK293 cells transiently transfected with this clone responded to CGRP and ADM […] by stimulating adenylyl cyclase activity (60-80% over basal). This clone has been stably expressed in HEK293 cells using the LipofectAMINE procedure and analyzed for CGRP and ADM-mediated adenylyl cyclase activity. One of the positive clones (BECRLR #8) was fully characterized. […]
# [5] = tested on: vascular SMC, and bovine EC; conditions: cited from earlier work
# [6] = target: T1, BECRLR (bovine calcitonin receptor-like receptor); assay: Adenylyl cyclase activity (activation) in BECRLR-expressing HEK293 cells/membranes; type: biochemical; parameters: adenylyl cyclase activity stimulation over basal: dose or concentration left out as unconfirmed; conditions: for additive effect between CGRP and ADM on adenylyl cyclase: CGRP combined with ADM, BECRLR #8; for adenylyl cyclase activity stimulation over basal: HEK293 cells transiently transfected; for EC50 / activation of adenylyl cyclase activity over basal: stable clone BECRLR #8; for activation of adenylyl cyclase activity over basal: concentration-dependent
# Source text: A bovine endothelial cell cDNA library was constructed using the k-Zap cDNA synthesis kit (Stratagene, La Jolla, Calif.) following the standard protocol. The human CGRP receptor c-DNA-coding sequence was used as a probe for the isolation of CRLR clones from an endothelial cell library. The probe was radiolabled with [α^32 P] ATP by the random priming method and used to screen approximately 1×10^6 plaque-forming units of the endothelial CRLR cDNA library. Nylon filters (Hybond ) containing plaque lifts were hybridized at 42° in 5× SSC (SSC is 150 mM NaCl and 15 mM sodium citrate), 5× Denhardt's solution, 0.1% SDS and 20% formamide followed by autography. Hybridizing clones (8) were plaque purified, and the pBluescript-containing insert was rescued from the purified×phage by in vivo excision using the Exassist/Solar system (Stratagene) and was sequenced in both strands by the dideoxynucleotide chain termination reaction. Two oligonucleotide primers were designed to amplify the open reading frame of the novel bovine CRLR cDNA. PCR amplification was carried out. A recombinant of the novel bovine CRLR was produced by transfection in HEK-293 cells. Transfection was achieved by LipofectAMINE procedure (Life Technologies, Gaithersburg, Md.). Stable cell lines expressing this receptor were selected with G418 and screened for CGRP and ADM-dependent activation of adenylyl cyclase.
# as §1, §4
# (§5) HEK293 cells transiently transfected with this clone responded to CGRP and ADM […] by stimulating adenylyl cyclase activity (60-80% over basal). This clone has been stably expressed in HEK293 cells using the LipofectAMINE procedure and analyzed for CGRP and ADM-mediated adenylyl cyclase activity. One of the positive clones (BECRLR #8) was fully characterized. […] To investigate further the functional results described in this study, a binding study using [^125 I]rADM and [^125 I]CGRP was performed to identify the presence of binding sites for both peptides in BE-CRLR (#8) cell membranes. [^125 I] CGRP binding was very little and the affinity or number of binding sites was difficult to determine. […] The specificity of [^125 I] rADM binding to BE-CRLR membranes was investigated by analyzing the displacement of this radioligand binding by ADM and related peptides. Human and rat ADM displaced [^125 I] rADM binding with high affinity (IC50 values 2-4 nM).
# [7] = target: T1, BECRLR (bovine calcitonin receptor-like receptor); assay: Saturation / specific radioligand binding to BECRLR-293 membranes
# Procedure: as §1
# as §2, with “filters. In competition binding studies, the membranes were incubated with increasing concentrations of r ADM or CGRP (1 pM-1 uM) and 150 pM of [^125 I] r ADM for 30 min. at 25° C.” for “filters.”
# as §5, with “Human and rat ADM displaced [^125 I] rADM binding with high affinity (IC50 values 2-4 nM).” left out
# [8] = tested on: NO-cGMP system; conditions: kidney, vascular EC, rabbit ventricular myocytes; cited from earlier work
# [9] = tested on: rat vascular SMC and cardiomyocytes; conditions: cited from earlier work
# [10] = injected intravenously into rats; cited from earlier work
# [11] = tested on: insulin-stimulated glycogen synthesis; conditions: activation of sensory nerves; cited from earlier work
# [12] = tested on: ATP-sensitive potassium channel; conditions: rabbit mesenteric resistance arteries and rat basilar artery; cited from earlier work
# [13] = tested on: rat tissues; conditions: [125I] rat ADM; cited from earlier work
# [14] = target: T1, BECRLR (bovine calcitonin receptor-like receptor); assay: Inhibition of ADM-activated adenylyl cyclase activity (antagonism) in BECRLR-293 membranes; type: biochemical; conditions: BECRLR #8
# Procedure: as §1, §3
# [15] = tested on: CRLR coexpressed with RAMP 1; conditions: CRLR with RAMP 1; cited from earlier work
# [16] = tested on: insulin's effects on glucose metabolism; conditions: cited from earlier work
# [17] = infusion into humans and a variety of other species; cited from earlier work
compound,measurement,setting,value
Human adrenomedullin [Human ADM],IC50,[1],2 to 4 nM
"adrenomedullin (YRQSMNQGSRSTGCRFGTCTMQKLAHQIYQFTDKDKDGMAPRNKISPQGY; ends and bridges not checked; cysteine pairing not given here; UniProt P43145 94-143, looked up) [ADM, vasodilating peptide]",insulin secretion and blood glucose metabolism,[2],down-regulate insulin secretion and blood glucose metabolism
same,response of expressed receptor,[3],responds to ADM
same,activation of adenylyl cyclase in vector transfected membranes,[4],did not respond
same,intracellular Ca++,[5]; through the activation of phospholipase C,induces a rise in intracellular Ca^++
same,accumulation of intracellular cAMP,"[5]; vascular SMC, and bovine EC",stimulates the accumulation of intracellular cAMP
same,additive effect between CGRP and ADM on adenylyl cyclase,[6],no additive effect
same,adenylyl cyclase activity stimulation over basal,[6],60-80 % over basal
same,EC50,[6],4.3 nM
same,activation of adenylyl cyclase activity over basal,[6],~ 300 % over basal
same,"affinity of BECRLR, overall conclusion",[7]; based on radioligand binding and functional assays,higher affinity to ADM
same,NO-cGMP system,[8],activated the NO-cGMP system
same,c-fos gene expression and AP-I DNA binding activity,[9],induces rapid and transient c-fos gene expression and AP-I DNA binding activity
same,hypotension,[10],"strong, long-lasting hypotension"
"rat ADM: rat adrenomedullin (YRQSMNQGSRSTGCRFGTCTMQKLAHQIYQFTDKDKDGMAPRNKISPQGY; ends and bridges not checked; cysteine pairing not given here; UniProt P43145 94-143, looked up)",IC50,[1],2 to 4 nM
C=C(C)[C@]12C[C@@H](C)[C@@]34O[C@](Cc5ccccc5)(O[C@@H]1[C@@H]3C=C(COC(=O)Cc1ccc(O)c(OC)c1)C[C@]1(O)C(=O)C(C)=C[C@@H]41)O2 [resiniferatoxin],insulin-stimulated glycogen synthesis,[11],inhibits insulin-stimulated glycogen synthesis
COc1ccc(Cl)cc1C(=O)NCCc1ccc(S(=O)(=O)NC(=O)NC2CCCCC2)cc1 [glibenclamide],inhibition of CGRP actions,[12],CGRP actions are inhibited by glibenclamide
COc1cc(CNC(=O)CCCC/C=C/C(C)C)ccc1O [capsaicin],insulin-stimulated glycogen synthesis,[11],inhibits insulin-stimulated glycogen synthesis
"[^125 I]rADM: radioiodinated rat adrenomedullin, radioligand (YRQSMNQGSRSTGCRFGTCTMQKLAHQIYQFTDKDKDGMAPRNKISPQGY; ends and bridges not checked; also: radioiodinated (125I), position not given here; UniProt P43145 94-143, looked up)",Kd,"[7]; Scatchard transformation, single class of high affinity binding site, read-out: dissociation constant (Kd)",0.25 nM
same,specific binding as percent of total binding,"[7]; [125I]rADM, BE-CRLR (#8) cell membranes",80-90 % of the total binding
same,density of ADM binding sites among rat tissues,[13],lung had the highest density of ADM binding sites
"ADM(26-52): ADM receptor antagonist, fragment 26-52 of adrenomedullin (LAHQIYQFTDKDKDNVAPRSKISPQGY; ends and bridges not checked; UniProt P35318 120-146, looked up, fragment)",IC50,[14],> 10000 nM
"ADM(22-52): ADM receptor antagonist, fragment 22-52 of adrenomedullin",IC50,[14],110 nM
same,displacement potency relative to ADM (fold less potent than ADM),[1]; [125I] rADM displacement,approximately 15 fold
Calcitonin gene-related peptide [CGRP],activation of adenylyl cyclase in vector transfected membranes,[4],did not respond
same,response of expressed receptor,[15],responds to CGRP
same,glucose infusion rate needed to maintain plasma euglycemia,"[16]; glucose clamp in rats, constant insulin infusion rate",rapid and sustained reduction in the glucose infusion rate
same,insulin inhibition of hepatic glucose production,"[16]; rat, in vivo",effective in blocking insulin inhibition of hepatic glucose production
same,additive effect between CGRP and ADM on adenylyl cyclase,[6],no additive effect
same,adenylyl cyclase activity stimulation over basal,[6],60-80 % over basal
same,EC50,[6],2.8 nM
same,activation of adenylyl cyclase activity over basal,[6],~ 300 % over basal
same,"vasodilation, blood flow, blood pressure, heart rate",[17],"vasodilation, increased regional blood flow, hypotension and tachycardia"
same,"displacement of [125I] rADM binding, potency in words",[1]; [125I] rADM displacement,less potent
